{
  "source": "paper PMC7753040",
  "about": "“Discovery of a Potent RIPK3 Inhibitor for the Amelioration of Necroptosis-Associated Inflammatory Injury” (Frontiers in Cell and Developmental Biology, 2020)",
  "key": {"RIPK3": {"test_system": "RIPK3", "design": "method as in Mandal et al., 2014", "conditions": "ref Mandal et al., 2014; cited from earlier work"}, "HeLa-MLKL (1–190) cells": {"test_system": "HeLa-MLKL (1–190) cells", "experiment": "MLKL polymerization-induced necroptosis in HeLa-MLKL (1-190) cells (AP20187)", "assay_type": "cell-based, human", "conditions": "doxycycline 1 μg/ml 24 h, 2 h pretreatment, AP20187 60 nM 24 h", "from_the_text": "Human colon cancer HT-29 and mouse fibrosarcoma L929 cells were from ATCC. Mouse embryonic fibroblasts (MEF), HT-29 cells stably expressing RIPK3-shRNA and shRNA resistant scramble Flag-tagged RIPK3 (W46), and NIH3T3 cell line stably expressing RIPK3 fused to mutant FK506-binding protein (NIH3T3-RIPK3) were kindly provided by Dr. Xiaodong Wang [National Institute of Biological Sciences (NIBS), Beijing]. HeLa-MLKL (1-190) cell line was a gift from Dr. Zhigao Wang (University of Texas Southwestern Medical Center at Dallas). These cells were cultured in Dulbecco’s modified Eagle’s medium (Hyclone) supplemeted with 10% fetal bovine serum (Invitrogen) and 2 mM L-glutamine (Invitrogen) in a humidified incubator at 37°C and 5% CO2. […]\nCells were seeded in 96-well plates and then treated as indicated. The cell viability was determined by assessment of ATP levels using the CellTiter-Glo Luminescent Cell Viability Assay kit following the manufacture’s instructions (Promega). Luminescence was calculated with SpectraMax i3x (Molecular Devices).\nIn vitro kinase activity assays using recombinant RIPK3 and RIPK1 were performed as described in the section “Materials and Methods.” Data represent mean value ± standard deviation. […] Cell viability was determined by measuring ATP levels. […] Cell viability was determined by measuring ATP levels. […]"}},
  "data": [
    {"smiles": "CC(C)S(=O)(=O)c1ccc2nccc(Nc3ccc4scnc4c3)c2c1", "note": "[GSK’872]", "values": [
      {"measurement": "induction of on-target apoptosis", "setting": "RIPK3", "value": "able to induce on-target apoptosis"}
    ]},
    {"smiles": "COc1nccnc1NS(=O)(=O)c1ccc(NC(=O)/C=C/c2ccc([N+](=O)[O-])s2)cc1", "note": "[necrosulfonamide, reference compound]", "values": [
      {"measurement": "polymerized MLKL-induced necroptosis", "setting": "HeLa-MLKL (1–190) cells", "value": "blocked"}
    ]}
  ]
}
